Values of other authors, collected in paper PMC8823334 (ACS chemical neuroscience, 2021).

Experiments:
PAR4 [1] = target: T1, PAR4 (Homo sapiens, UniProt Q96RI0)
T1 sequence (Q96RI0 18-385): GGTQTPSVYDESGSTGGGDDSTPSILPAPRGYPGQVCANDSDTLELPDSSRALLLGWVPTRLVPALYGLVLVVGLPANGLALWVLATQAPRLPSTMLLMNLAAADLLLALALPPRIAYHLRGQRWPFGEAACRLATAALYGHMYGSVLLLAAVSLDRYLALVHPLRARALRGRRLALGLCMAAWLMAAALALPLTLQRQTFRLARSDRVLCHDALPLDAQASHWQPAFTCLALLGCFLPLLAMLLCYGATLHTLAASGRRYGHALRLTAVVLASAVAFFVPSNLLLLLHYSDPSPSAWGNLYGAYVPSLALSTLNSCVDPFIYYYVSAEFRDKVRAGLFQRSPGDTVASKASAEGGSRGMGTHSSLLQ

PAR4 [2] = conditions: mice, suppression of neuroinflammation in astrocytes

mode of PAR4 inhibition (PAR4 [1]): noncompetitive mode of inhibition
SMILES: COc1cc(OCc2nc(N3CCOCC3)sc2C)c2cc(-c3cn4nc(OC)sc4n3)oc2c1 [Compound 1]
protection against traumatic brain injury (PAR4 [2]): protected against traumatic brain injury (TBI) in mice
